According to the kinase profiling compilation of Christmann-Franck et al. (2016):

Key:
Assay in all cases: KINOMEscan competition binding
Conditions in all cases: compound 2.0 µM
[1] = target: MINK1 (human) (UniProt Q8N4C8)
[2] = target: HCK (human) (UniProt P08631)
[3] = target: CDK19 (human) (UniProt Q9BWU1)
[4] = target: NEK4 (human) (UniProt P51957)
[5] = test system: FLT3 (human), P36888 [K663Q]
[6] = target: STK10 (human) (UniProt O94804)
[7] = target: MATK (human) (UniProt P42679)
[8] = target: EPHB2 (human) (UniProt P29323)
[9] = target: MAST1 (human) (UniProt Q9Y2H9)
[10] = target: PIK3C2B (human) (UniProt O00750)
[11] = test system: PIK3CA (human), P42336 [E545K]
Sequence of PIK3CA (human), P42336 [E545K] (P42336 whole entry E545K, looked up): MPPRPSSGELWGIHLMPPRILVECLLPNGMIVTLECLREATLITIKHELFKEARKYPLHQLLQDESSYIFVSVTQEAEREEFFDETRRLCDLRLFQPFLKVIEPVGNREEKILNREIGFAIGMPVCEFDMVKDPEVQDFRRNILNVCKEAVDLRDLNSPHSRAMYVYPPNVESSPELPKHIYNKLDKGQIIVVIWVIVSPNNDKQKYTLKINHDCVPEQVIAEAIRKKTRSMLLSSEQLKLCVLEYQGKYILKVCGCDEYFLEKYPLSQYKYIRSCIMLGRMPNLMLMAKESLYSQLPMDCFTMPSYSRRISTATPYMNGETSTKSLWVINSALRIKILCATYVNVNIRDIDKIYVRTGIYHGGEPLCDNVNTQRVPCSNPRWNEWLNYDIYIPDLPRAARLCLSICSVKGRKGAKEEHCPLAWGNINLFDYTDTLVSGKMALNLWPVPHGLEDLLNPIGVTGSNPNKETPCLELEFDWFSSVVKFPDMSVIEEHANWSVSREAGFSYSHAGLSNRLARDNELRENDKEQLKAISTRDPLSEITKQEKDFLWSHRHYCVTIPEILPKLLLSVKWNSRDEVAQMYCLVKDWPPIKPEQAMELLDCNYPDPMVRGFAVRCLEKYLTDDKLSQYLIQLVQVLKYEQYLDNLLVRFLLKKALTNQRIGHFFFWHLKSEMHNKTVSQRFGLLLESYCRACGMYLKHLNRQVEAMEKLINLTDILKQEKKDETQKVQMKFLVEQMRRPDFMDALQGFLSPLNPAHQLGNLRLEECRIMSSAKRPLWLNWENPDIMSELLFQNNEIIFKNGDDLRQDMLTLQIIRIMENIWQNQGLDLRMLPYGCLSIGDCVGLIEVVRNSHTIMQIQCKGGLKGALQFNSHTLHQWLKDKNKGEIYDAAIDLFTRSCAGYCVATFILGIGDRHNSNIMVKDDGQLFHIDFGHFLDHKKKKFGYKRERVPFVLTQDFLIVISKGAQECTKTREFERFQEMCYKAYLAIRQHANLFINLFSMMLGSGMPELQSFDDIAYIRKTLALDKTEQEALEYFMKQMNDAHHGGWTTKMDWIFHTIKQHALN

[12] = target: JAK3 JH1 catalytic (human) (UniProt P52333)
[13] = test system: EGFR (human), P00533 [T790M]
[14] = target: MAP3K9 (human) (UniProt P80192)
[15] = target: MAPK7 (human) (UniProt Q13164)
[16] = target: HIPK2 (human) (UniProt Q9H2X6)
[17] = target: TGFBR2 (human) (UniProt P37173)
[18] = target: ERBB2 (human) (UniProt P04626)
[19] = target: TAOK1 (human) (UniProt Q7L7X3)
Sequence of TAOK1 (human) (Q7L7X3 whole entry, looked up): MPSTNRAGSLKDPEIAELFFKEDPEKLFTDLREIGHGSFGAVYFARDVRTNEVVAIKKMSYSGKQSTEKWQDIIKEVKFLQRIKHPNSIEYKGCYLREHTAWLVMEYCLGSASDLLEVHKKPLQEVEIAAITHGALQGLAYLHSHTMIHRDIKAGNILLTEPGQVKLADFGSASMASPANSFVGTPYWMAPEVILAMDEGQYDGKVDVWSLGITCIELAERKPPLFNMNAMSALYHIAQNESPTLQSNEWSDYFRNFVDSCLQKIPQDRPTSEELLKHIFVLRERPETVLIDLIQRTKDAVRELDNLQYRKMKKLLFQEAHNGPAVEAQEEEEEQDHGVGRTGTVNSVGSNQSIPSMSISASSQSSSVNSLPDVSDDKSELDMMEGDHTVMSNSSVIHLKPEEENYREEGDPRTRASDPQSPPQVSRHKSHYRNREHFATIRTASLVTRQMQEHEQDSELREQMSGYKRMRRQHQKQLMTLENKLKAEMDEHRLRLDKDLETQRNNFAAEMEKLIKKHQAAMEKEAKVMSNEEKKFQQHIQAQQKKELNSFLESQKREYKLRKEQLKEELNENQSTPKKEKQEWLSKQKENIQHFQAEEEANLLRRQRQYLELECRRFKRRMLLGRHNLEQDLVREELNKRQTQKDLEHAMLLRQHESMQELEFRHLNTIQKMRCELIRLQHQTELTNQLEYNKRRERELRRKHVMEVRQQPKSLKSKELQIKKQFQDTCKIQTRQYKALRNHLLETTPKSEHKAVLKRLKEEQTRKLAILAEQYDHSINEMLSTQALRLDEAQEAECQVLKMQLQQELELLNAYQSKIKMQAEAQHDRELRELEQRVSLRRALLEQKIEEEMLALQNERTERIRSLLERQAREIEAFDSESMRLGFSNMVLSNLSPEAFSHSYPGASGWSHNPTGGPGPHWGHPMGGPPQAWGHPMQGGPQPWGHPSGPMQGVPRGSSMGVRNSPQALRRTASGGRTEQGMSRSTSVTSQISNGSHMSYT

[20] = target: MAP3K2 (human) (UniProt Q9Y2U5)
[21] = target: PDGFRB (human) (UniProt P09619)
[22] = target: PRKCQ (human) (UniProt Q04759)
[23] = target: CDK9 (human) (UniProt P50750)
[24] = target: PIM2 (human) (UniProt Q9P1W9)
[25] = target: IRAK1 (human) (UniProt P51617)
[26] = test system: EGFR (human), P00533 [746-750 del]
[27] = target: KDR (human) (UniProt P35968)
[28] = target: DAPK3 (human) (UniProt O43293)
[29] = target: MAP3K4 (human) (UniProt Q9Y6R4)
[30] = target: MAP3K7 (human) (UniProt O43318)
[31] = test system: MET (human), P08581 [Y1235D]
[32] = target: LTK (human) (UniProt P29376)
[33] = target: ADCK3 (human) (UniProt Q8NI60)
[34] = target: CAMK4 (human) (UniProt Q16566)
Sequence of CAMK4 (human) (Q16566 whole entry, looked up): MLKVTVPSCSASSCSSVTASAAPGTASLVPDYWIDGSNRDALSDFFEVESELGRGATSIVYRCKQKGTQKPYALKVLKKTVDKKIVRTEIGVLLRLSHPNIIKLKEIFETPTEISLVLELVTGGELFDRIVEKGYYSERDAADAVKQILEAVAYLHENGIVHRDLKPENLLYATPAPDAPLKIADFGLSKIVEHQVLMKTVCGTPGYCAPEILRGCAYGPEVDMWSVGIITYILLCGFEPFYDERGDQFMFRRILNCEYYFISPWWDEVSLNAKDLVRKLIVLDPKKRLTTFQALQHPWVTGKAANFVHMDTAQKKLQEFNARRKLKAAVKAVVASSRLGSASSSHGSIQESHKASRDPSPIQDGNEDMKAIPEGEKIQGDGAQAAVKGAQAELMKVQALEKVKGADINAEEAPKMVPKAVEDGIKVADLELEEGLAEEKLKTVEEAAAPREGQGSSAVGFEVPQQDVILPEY

[35] = target: SRPK3 (human) (UniProt Q9UPE1)
[36] = target: FES (human) (UniProt P07332)
[37] = target: YES1 (human) (UniProt P07947)
[38] = target: WEE2 (human) (UniProt P0C1S8)
[39] = target: STK32B (human) (UniProt Q9NY57)
[40] = target: TNK1 (human) (UniProt Q13470)
[41] = target: EGFR (human) (UniProt P00533)
[42] = target: LATS2 (human) (UniProt Q9NRM7)
Sequence of LATS2 (human) (Q9NRM7 whole entry, looked up): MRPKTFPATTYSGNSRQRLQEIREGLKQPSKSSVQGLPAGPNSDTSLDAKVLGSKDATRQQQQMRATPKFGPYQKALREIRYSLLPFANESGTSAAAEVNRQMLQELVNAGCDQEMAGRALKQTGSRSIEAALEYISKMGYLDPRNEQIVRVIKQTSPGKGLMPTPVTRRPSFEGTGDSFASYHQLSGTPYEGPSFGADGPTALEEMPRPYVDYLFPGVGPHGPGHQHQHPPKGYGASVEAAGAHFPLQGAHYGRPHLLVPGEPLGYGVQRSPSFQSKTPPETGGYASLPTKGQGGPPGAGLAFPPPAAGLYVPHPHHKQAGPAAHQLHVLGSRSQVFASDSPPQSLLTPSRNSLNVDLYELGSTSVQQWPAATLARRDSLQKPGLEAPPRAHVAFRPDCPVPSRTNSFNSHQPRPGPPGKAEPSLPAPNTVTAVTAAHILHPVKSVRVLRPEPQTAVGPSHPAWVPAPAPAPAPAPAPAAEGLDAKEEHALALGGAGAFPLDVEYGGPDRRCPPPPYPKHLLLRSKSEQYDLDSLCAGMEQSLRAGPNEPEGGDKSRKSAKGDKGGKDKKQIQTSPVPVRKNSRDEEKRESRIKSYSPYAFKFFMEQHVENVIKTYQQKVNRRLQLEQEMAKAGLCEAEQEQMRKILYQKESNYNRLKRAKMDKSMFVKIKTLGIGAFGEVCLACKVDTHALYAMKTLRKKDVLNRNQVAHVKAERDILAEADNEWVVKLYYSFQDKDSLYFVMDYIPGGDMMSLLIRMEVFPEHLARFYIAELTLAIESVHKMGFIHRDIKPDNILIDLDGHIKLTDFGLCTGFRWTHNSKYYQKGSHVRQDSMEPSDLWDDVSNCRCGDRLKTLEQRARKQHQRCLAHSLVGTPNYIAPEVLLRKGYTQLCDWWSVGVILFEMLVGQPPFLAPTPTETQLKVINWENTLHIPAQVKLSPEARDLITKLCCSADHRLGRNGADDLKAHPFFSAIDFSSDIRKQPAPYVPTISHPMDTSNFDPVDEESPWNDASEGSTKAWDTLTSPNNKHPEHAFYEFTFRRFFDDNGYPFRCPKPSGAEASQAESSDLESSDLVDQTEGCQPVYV

[43] = target: PTK2 (human) (UniProt Q05397)

Sequence of MINK1 (human) (Q8N4C8 whole entry, looked up): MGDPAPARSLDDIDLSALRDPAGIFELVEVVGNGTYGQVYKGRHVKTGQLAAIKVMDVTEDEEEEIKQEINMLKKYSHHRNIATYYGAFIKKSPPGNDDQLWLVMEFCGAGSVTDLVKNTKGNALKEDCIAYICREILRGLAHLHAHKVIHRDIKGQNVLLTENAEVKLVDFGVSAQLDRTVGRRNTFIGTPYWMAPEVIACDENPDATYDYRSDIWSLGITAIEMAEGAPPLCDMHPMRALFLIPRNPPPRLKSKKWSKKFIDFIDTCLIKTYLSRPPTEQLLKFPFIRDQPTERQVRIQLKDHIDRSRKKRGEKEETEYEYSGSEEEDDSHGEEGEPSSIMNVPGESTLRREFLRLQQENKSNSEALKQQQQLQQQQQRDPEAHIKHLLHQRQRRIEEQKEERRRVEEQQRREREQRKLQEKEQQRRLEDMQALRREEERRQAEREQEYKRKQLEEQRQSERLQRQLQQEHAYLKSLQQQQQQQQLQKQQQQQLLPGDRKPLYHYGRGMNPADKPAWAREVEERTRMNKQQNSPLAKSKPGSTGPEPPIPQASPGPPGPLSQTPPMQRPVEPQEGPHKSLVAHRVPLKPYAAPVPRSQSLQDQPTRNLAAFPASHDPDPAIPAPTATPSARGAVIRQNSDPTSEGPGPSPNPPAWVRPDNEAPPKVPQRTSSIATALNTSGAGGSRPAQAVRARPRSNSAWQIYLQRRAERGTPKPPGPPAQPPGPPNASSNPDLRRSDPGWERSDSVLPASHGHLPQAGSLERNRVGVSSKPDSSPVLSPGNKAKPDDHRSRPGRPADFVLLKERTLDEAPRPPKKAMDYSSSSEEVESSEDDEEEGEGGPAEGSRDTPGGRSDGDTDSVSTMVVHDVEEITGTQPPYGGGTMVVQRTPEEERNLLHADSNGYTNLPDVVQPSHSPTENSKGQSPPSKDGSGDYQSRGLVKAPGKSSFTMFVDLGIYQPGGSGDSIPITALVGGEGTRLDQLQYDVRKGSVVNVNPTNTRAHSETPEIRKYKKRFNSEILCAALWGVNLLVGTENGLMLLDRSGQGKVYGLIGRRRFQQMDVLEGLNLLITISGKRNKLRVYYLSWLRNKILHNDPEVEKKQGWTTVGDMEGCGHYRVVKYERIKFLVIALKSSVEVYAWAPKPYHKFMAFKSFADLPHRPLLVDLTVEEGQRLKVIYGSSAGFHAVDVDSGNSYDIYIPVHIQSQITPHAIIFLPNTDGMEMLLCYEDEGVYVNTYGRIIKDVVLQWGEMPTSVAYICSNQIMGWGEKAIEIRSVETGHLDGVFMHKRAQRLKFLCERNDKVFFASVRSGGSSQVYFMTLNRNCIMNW

N#Cc1ccc2ncnc(NCCc3ccc4ccccc4c3)c2c1
kinase still bound, per cent of control [1]: 100% | kinase still bound, per cent of control [2]: 88% | kinase still bound, per cent of control [3]: 0.8% | kinase still bound, per cent of control [4]: 100% | kinase still bound, per cent of control [5]: 98% | kinase still bound, per cent of control [6]: 67% | kinase still bound, per cent of control [7]: 100% | kinase still bound, per cent of control [8]: 99% | kinase still bound, per cent of control [9]: 84% | kinase still bound, per cent of control [10]: 85% | kinase still bound, per cent of control [11]: 94% | kinase still bound, per cent of control [12]: 100% | kinase still bound, per cent of control [13]: 100% | kinase still bound, per cent of control [14]: 85% | kinase still bound, per cent of control [15]: 93% | kinase still bound, per cent of control [16]: 87% | kinase still bound, per cent of control [17]: 92% | kinase still bound, per cent of control [18]: 94% | kinase still bound, per cent of control [19]: 96% | kinase still bound, per cent of control [20]: 80% | kinase still bound, per cent of control [21]: 100% | kinase still bound, per cent of control [22]: 100% | kinase still bound, per cent of control [23]: 100% | kinase still bound, per cent of control [24]: 89% | kinase still bound, per cent of control [25]: 98% | kinase still bound, per cent of control [26]: 100% | kinase still bound, per cent of control [27]: 86% | kinase still bound, per cent of control [28]: 74% | kinase still bound, per cent of control [29]: 86% | kinase still bound, per cent of control [30]: 78% | kinase still bound, per cent of control [31]: 100% | kinase still bound, per cent of control [32]: 99% | kinase still bound, per cent of control [33]: 100% | kinase still bound, per cent of control [34]: 100% | kinase still bound, per cent of control [35]: 86% | kinase still bound, per cent of control [36]: 100% | kinase still bound, per cent of control [37]: 86% | kinase still bound, per cent of control [38]: 65% | kinase still bound, per cent of control [39]: 97% | kinase still bound, per cent of control [40]: 90% | kinase still bound, per cent of control [41]: 75% | kinase still bound, per cent of control [42]: 100% | kinase still bound, per cent of control [43]: 88%
